Data taken from patent publication US9233978B2, “6-fused heteroaryldihydropyrimidines for the treatment and prophylaxis of hepatitis B virus infection” (Hoffmann-La Roche Inc., priority 2014, dated 2016).
Values after ≈ are worked out from the molar mass of the structure shown. Where two headings read alike, the source gives them in different places.

Experiments:
HBV = assay: Anti-HBV activity in vitro, HepG2.2.15 cells, extracellular HBV DNA by qPCR; type: cell-based; conditions: Hepatitis B virus, HepG2.2.15, 120 h
In short: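 Extracellular HBV DNA in culture supernatant was measured by qPCR after nucleic acid extraction. The supernatant came from constitutively replicating HepG2.2.15 cells exposed for five days to half-log-diluted compounds, with DMSO at 0.5% final. Cells had been plated overnight at 37 °C beforehand.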

[1] = Cytotoxicity in HepDE19 cells (CCK-8) and selectivity index; type: cell-based; conditions: human, HepDE19 cells; CCK-8 cell viability; five days after treatment
In short: (§1)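 HepDE19 cells (DMEM-F12, 10% FBS) were treated with compound for five days, then given CCK-8 for 2 h at 37 °C and read at OD450 and OD630. CC50 is the concentration killing 50% of host cells. Selectivity index is CC50/EC50.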

HepDE19 cells = assay: as above; type: cell-based; conditions: CC50 (HepDE19) value / EC50 (HepG2.2.15) value
In short: as §1

[2] = Human microsomal metabolic stability; type: in vitro ADME; conditions: human microsomes 0.5 mg/mL, 1 μM test compound, NADPH, 37° C., pH 7.4, 0-30 minutes
In short: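 1 μM compound with 0.5 mg/mL human liver microsomal protein in 100 mM phosphate pH 7.4 at 37° C, started with 1 mM NADPH or a NADPH-regenerating system. Sampled at 0–30 min, quenched in cold methanol with tolbutamide internal standard; remaining parent quantified by LC-MS/MS.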

Lysa solubility = type: physicochemical; conditions: phosphate buffer, pH 6.5, aqueous buffer, thermodynamic from solid, 0.05 M phosphate buffer (pH 6.5)
In short: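 Duplicate samples dried from 10 mM DMSO stocks, taken up in 0.05 M phosphate buffer pH 6.5, stirred 1 h, shaken 2 h and left overnight. Filtrate and 1/10 dilution quantified by direct UV or HPLC-UV, in μg/mL; above 80% of the calculated maximum, reported as greater than that value.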

CYP3A4 = assay: Cytochrome P450 induction screening assay, mRNA induction in human cryopreserved hepatocytes; type: in vitro ADME; conditions: CYP3A4 mRNA relative induction, 24 hours, test compound up to 10 μM
Protocol: Human cryopreserved hepatocytes (Life Technologies, Carlsbad, USA) were thawed and cultured in collagen I coated 96-well plates with a density of 52,000 cells/well. After attachment, medium was changed and cells were pre-cultured overnight in hepatocyte maintenance medium (HMM; Lonza, Switzerland).
Test compounds were dosed to the cells next morning at an indicated concentration (up to 10 μM) in HMM culture media containing gentamycin and a constant 0.1% DMSO. Similarly, dilutions of the positive inducer compounds omeprazole (prototypical inducer of human CYP1A2; final concentrations: 1 and 10 μM), phenobarbital (prototypical inducer of human CYP2B6; final concentrations: 100 and 1000 μM) and rifampicin (prototypical inducer of human CYP3A4; final concentrations: 1 and 10 μM) were prepared from 1000 fold DMSO stock solutions in HMM containing gentamycin. Medium change was then performed and cells were exposed for 24 hours to test compounds, positive inducer compounds, or vehicle (0.1% DMSO), respectively.
At the end of the compound exposure period, medium was removed and cells lysed using 100 μL/well MagNA Pure LC RNA isolation tissue lysis buffer (Roche Diagnostics AG, Rotkreuz, Switzerland). Plates were then sealed and frozen at −80° C. until further workup.
mRNA isolation was performed using the MagNA Pure 96 system (Roche Diagnostics AG, Rotkreuz, Switzerland) and the respective cellular RNA large volume kit (Roche Diagnostics AG, Rotkreuz, Switzerland) from thawed samples diluted 1:1 with PBS. The volume of the cell lysis and an elution volume of 100 μL were used. 20 μl of the resulting mRNA suspension was then used for reverse transcription using 20 μl of the transcript or first stand cDNA synthesis kit (Roche prime Supply, Mannheim, Germany). The resulting cDNA was diluted with 40 μl of H2O before using for qRT-PCR. qRT-PCR was performed by using the forward and the reverse primer, the corresponding UPL (all from Microsynth, Balgach, Switzerland) and the Taqman Fast advanced master mix (Applied Biosystems), on an ABI 7900 machine (Applied Biosystems).
qRT-PCR Ct-values for the respective P450s were put into relation to the Ct-value of RN18S1 (microsynth, Balgach, Switzerland) of the same sample. Doing so, a respective Δct-value was calculated. Using the average of all Δct-values for the vehicle control samples, a ΔΔct-value was calculated for each sample (ΔΔct-value(sample)=Δct-value(sample)−average of Δct-value of all vehicle controls). The fold induction of the respective sample was calculated as 2^(−ΔΔct). The individual fold induction values were then averaged per treatment condition (usually n=3 biological replicates).
Relative induction values to the respective positive inducer compound condition (10 μM omeprazole for CYP1A2; 1000 μM Phenobarbital for CYP2B6; 10 μM rifampicin for CYP3A4) were then calculated from the fold induction values as follows: Relative induction (%)=100×(T−V)/(P−V)

[3] = HepG2.2.15 cells, HBV replication inhibited by 50%, extracellular HBV DNA by qPCR, five days after compound treatment, read-out: EC50

SMILES	EC50 (HBV; [3]) [nM]	CC50 at 5 days [1] [µM]	Selectivity index (CC50/EC50) (HepDE19 cells)	Human Microsomal Clearance [2] [mL/min/kg]	solubility thermodynamic (Lysa solubility) [µg/mL]	% of Positive control (10 μM Rifampicin) (CYP3A4) [%]	EC50 (HBV) [nM]
CCOC(=O)C1=C(CN2CCN3C(=O)N(C4CCC(C(=O)O)C4)C[C@@H]3C2)NC(c2nccs2)=N[C@H]1c1cccc(F)c1Cl (mixture of isomers) [Example 62, (R)-6-[(S)-2-((1R,3S)-3-Carboxy-cyclopentyl)-3-oxo-hexahydro-imidazo[1,5-a]pyrazin-7-ylmethyl]-4-(2-chloro-3-fluoro-phenyl)-2-thiazol-2-yl-1,4-dihydro-pyrimidine-5-carboxylic acid ethyl ester and (R)-6-[(S)-2-((1S,3R)-3-Carboxy-cyclopentyl)-3-oxo-hexahydro-imidazo[1,5-a]pyrazin-7-ylmethyl]-4-(2-chloro-3-fluoro-phenyl)-2-thiazol-2-yl-1,4-dihydro-pyrimidine-5-carboxylic acid ethyl ester]	6	> 100	>16667	1.7	374	0	
COC(=O)C1=C(CN2CCN3C(=O)N(C4CC4)C[C@@H]3[C@H]2C(=O)O)NC(c2nccs2)=N[C@H]1c1ccc(F)cc1Cl (racemic) [Example 45, 7-[[(4R)-4-(2-chloro-4-fluoro-phenyl)-5-methoxycarbonyl-2-thiazol-2-yl-1,4-dihydropyrimidin-6-yl]methyl]-2-cyclopropyl-3-oxo-5,6,8,8a-tetrahydro-1H-imidazo[1,5-a]pyrazine-8-carboxylic acid]	26				> 690	20	
CCOC(=O)C1=C(CN2CCN3C(=O)N(C4CC4)C[C@@H]3[C@H]2C(=O)O)NC(c2nccs2)=N[C@H]1c1cccc(F)c1Cl (single isomer, unassigned) [Example 82B]		> 100	>50000	2.7		6	2
COC(=O)C1=C(CN2CCN3C(=O)N(C(C)(C)C)C[C@@H]3[C@H]2C(=O)O)NC(c2nccs2)=N[C@H]1c1ccc(F)cc1Cl (single isomer, unassigned) [Example 86B]	4	> 100	>25000	4.7	> 740	11	
CCOC(=O)C1=C(CN2CCN3C(=O)N(C(C)(C)C)C[C@@H]3[C@H]2C(=O)O)NC(c2nccs2)=N[C@H]1c1cccc(F)c1Cl (single isomer, unassigned) [Example 87B]	1	> 100	>100000	5.0		4.0	
COC(=O)C1=C(CN2CCN3C(=O)NC[C@@H]3C2)NC(c2nccs2)=N[C@H]1c1ccc(F)cc1Cl [Example 11, Methyl (4R)-6-[[(8aR)-3-oxo-1,2,5,6,8,8a-hexahydroimidazo[1,5-a]pyrazin-7-yl]methyl]-4-(2-chloro-4-fluoro-phenyl)-2-thiazol-2-yl-1,4-dihydropyrimidine-5-carboxylate]	1	52	30635			17	
CCOC(=O)C1=C(CN2CCN3C(=O)N(CC(C)(C)C(=O)O)C[C@@H]3C2)NC(c2nccs2)=N[C@H]1c1ccc(F)c(F)c1C [Example 22, 3-[(8aS)-7-[[(4S)-4-(3,4-difluoro-2-methyl-phenyl)-5-ethoxycarbonyl-2-thiazol-2-yl-1,4-dihydropyrimidin-6-yl]methyl]-3-oxo-5,6,8,8a-tetrahydro-1H-imidazo[1,5-a]pyrazin-2-yl]-2,2-dimethyl-propanoic acid]	3	> 100	>34482			0	
COC(=O)C1=C(CN2CCN3C(=O)N(c4ccc(C(=O)O)cc4)C[C@@H]3C2)NC(c2nccs2)=N[C@H]1c1ccc(F)cc1Cl [Example 25, (R)-6-[(S)-2-(4-Carboxy-phenyl)-3-oxo-hexahydro-imidazo[1,5-a]pyrazin-7-ylmethyl]-4-(2-chloro-4-fluoro-phenyl)-2-thiazol-2-yl-1,4-dihydro-pyrimidine-5-carboxylic acid methyl ester]	2			0.4		0	
CCOC(=O)C1=C(CN2CCN3C(=O)N(c4cccc(C(=O)O)c4)C[C@@H]3C2)NC(c2nccs2)=N[C@H]1c1cccc(F)c1Cl [Example 27, (R)-6-[(S)-2-(3-Carboxy-phenyl)-3-oxo-hexahydro-imidazo[1,5-a]pyrazin-7-ylmethyl]-4-(2-chloro-3-fluoro-phenyl)-2-thiazol-2-yl-1,4-dihydro-pyrimidine-5-carboxylic acid ethyl ester]	3					0.2	
COC(=O)C1=C(CN2CCN3C(=O)N(C4CC4)CC3(CC(=O)O)C2)NC(c2nccs2)=N[C@H]1c1ccc(F)cc1Cl (stereo partly drawn) [Example 30, 2-[7-[[(4R)-4-(2-chloro-4-fluoro-phenyl)-5-methoxycarbonyl-2-thiazol-2-yl-1,4-dihydropyrimidin-6-yl]methyl]-2-cyclopropyl-3-oxo-1,5,6,8-tetrahydroimidazo[1,5-a]pyrazin-8a-yl]acetic acid]	95			1.7	610 (≈ 1010 µM)	7.3	
COC(=O)C1=C(CN2CCN3C(=O)N(CC(C)(C)C(=O)O)C[C@@H]3C2)NC(c2nccs2)=N[C@H]1c1ccc(F)c(F)c1C [Example 43, 3-[(8aS)-7-[[(4S)-4-(3,4-difluoro-2-methyl-phenyl)-5-methoxycarbonyl-2-thiazol-2-yl-1,4-dihydropyrimidin-6-yl]methyl]-3-oxo-5,6,8,8a-tetrahydro-1H-imidazo[1,5-a]pyrazin-2-yl]-2,2-dimethyl-propanoic acid]	6			3.1		0.2	
COC(=O)C1=C(CN2CCN3C(=O)N(CC(C)(C)CC(=O)O)C[C@@H]3C2)NC(c2nccs2)=N[C@H]1c1ccc(F)cc1Cl [Example 55, 4-[(8aS)-7-[[(4R)-4-(2-chloro-4-fluoro-phenyl)-5-methoxycarbonyl-2-thiazol-2-yl-1,4-dihydropyrimidin-6-yl]methyl]-3-oxo-5,6,8,8a-tetrahydro-1H-imidazo[1,5-a]pyrazin-2-yl]-3,3-dimethyl-butanoic acid]	5	> 100	>20000		470 (≈ 759 µM)	0.1	
